Measurements from patent US20190076406A1, “METHODS AND COMPOSITIONS FOR TREATING CONDITIONS ASSOCIATED WITH ANGIOGENESIS USING A VASCULAR ADHESION PROTEIN-1 (VAP-1) INHIBITOR” (MASSACHUSETTS EYE & EAR INFIRMARY, priority 2007, published 2019).

Legend:
[1] = target: T1, rat semicarbazide-sensitive amine oxidase (SSAO) (Rattus norvegicus, UniProt O08590); test: IC50 against rat SSAO; assay type: biochemical
T1 sequence (O08590 1-763): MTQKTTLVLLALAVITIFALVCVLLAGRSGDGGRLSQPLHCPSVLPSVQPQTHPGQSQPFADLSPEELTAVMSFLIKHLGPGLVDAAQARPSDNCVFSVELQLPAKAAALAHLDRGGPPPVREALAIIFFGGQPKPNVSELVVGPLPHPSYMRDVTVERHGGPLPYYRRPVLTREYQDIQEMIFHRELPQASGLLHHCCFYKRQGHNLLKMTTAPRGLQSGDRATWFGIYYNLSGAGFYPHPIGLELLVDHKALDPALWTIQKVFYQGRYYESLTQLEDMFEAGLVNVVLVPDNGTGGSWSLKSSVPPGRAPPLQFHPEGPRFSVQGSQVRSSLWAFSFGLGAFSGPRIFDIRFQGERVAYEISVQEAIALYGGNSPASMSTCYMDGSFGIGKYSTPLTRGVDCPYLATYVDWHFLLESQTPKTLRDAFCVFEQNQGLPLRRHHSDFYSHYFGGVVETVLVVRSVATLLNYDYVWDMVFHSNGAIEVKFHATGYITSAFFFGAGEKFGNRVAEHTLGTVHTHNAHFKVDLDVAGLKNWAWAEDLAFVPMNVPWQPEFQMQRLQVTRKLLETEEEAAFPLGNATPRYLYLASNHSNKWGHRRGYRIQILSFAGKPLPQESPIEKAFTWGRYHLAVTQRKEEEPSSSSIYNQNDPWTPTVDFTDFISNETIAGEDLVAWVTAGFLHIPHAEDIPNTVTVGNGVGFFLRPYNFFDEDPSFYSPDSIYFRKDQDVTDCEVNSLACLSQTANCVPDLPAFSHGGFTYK

[2] = target: T2, monoamine oxidase (MAO)-A (Homo sapiens, UniProt P21397); test: IC50 against MAO-A; assay type: biochemical
T2 sequence (P21397 1-527): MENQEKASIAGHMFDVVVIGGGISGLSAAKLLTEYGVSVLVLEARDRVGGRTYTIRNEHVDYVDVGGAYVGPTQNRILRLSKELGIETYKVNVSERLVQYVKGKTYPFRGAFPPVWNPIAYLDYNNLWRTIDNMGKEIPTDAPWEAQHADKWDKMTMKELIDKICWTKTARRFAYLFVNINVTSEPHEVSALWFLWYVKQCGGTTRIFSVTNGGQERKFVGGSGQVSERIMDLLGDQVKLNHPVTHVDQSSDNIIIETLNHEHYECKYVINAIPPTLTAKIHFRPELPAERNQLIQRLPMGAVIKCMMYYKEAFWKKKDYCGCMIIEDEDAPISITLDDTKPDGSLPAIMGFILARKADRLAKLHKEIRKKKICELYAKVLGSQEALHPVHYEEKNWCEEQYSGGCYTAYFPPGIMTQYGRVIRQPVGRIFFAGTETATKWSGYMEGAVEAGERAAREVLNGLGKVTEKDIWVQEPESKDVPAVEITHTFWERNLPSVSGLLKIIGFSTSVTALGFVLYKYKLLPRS

MAO-B = target: T3, MAO-B (Homo sapiens, UniProt P27338); test: IC50 against MAO-B; assay type: biochemical
T3 sequence (P27338 1-520): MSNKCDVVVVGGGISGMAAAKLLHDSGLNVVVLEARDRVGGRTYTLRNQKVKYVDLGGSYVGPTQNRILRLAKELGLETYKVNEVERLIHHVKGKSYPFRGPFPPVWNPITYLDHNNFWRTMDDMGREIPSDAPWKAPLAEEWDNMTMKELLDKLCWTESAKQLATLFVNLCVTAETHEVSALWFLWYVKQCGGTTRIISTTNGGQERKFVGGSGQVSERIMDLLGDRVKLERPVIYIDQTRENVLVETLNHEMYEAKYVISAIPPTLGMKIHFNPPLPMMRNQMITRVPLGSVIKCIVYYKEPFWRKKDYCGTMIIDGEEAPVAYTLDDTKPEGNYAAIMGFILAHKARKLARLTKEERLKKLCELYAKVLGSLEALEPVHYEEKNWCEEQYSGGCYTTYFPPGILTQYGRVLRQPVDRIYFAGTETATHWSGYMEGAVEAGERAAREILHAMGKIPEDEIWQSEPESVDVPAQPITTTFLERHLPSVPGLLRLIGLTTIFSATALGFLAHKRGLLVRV

TNF-α = test: ELISA of TNF-α in RPE-choroid complex after laser injury; assay type: in vivo, rat; conditions: 3 days after laser injury; 0.3 mg/kg daily i.p.; mean±SEM
Protocol: (§1) Brown-Norway rats were anesthetized with 0.2-0.3 ml of a 50:50 mixture of 100 mg/ml Ketamine and 20 mg/ml Xylazine. Pupils were dilated with 5.0% Phenylephrine and 0.8% Tropicamide. CNV was induced with a 532 nm laser (Oculight GLx, Iridex, Mountain View, Calif.). Six laser spots (150 mW, 100 μm, 100 msec) were placed in each eye using a slit-lamp delivery system and a cover glass as a contact lens. Production of a bubble at the time of laser confirmed the rupture of the Bruch's membrane.
(§2) To block VAP-1, a specific VAP-1 inhibitor, Compound II described above, was used (R-tech Ueno, Ltd., Tokyo, Japan). […]
(§3) The RPE-choroid complex was carefully isolated from eyes 3 days after photocoagulation and placed in 300 μl of lysis buffer supplemented with protease inhibitors and sonicated. The lysate was centrifuged at 15,000 rpm for 15 minutes at 4° C. and the levels of TNF-α, monocyte chemotactic protein (MCP)-1, and intercellular adhesion molecule (ICAM)-1 were determined with rat TNF-α (BD bioscience), MCP-1 (BD bioscience) and ICAM-1 (R&D Systems, Minneapolis, Minn.) enzyme-linked immunosorbent assay (ELISA) kits according to the manufacturers' protocols. Total protein concentration was determined using a Bio-Rad Protein Assay Kit (Bio-Rad Laboratories Hercules, Calif.) and dilutions of bovine serum albumin (Bio-Rad Laboratories) as standards.

MCP-1 = test: ELISA of MCP-1 in RPE-choroid complex after laser injury; assay type: in vivo, rat; conditions: 3 days after laser injury; 0.3 mg/kg daily i.p.; mean±SEM
Protocol: as §1, §2, §3

IC50 [1]: 0.008 µM
IC50 [2]: > 10 µM
IC50 (MAO-B): > 10 µM
Compound: CC(=O)Nc1nc(CCc2ccc(NC(=N)NN)cc2)c(Cc2ccc(S(C)(=O)=O)cc2)s1 [Compound II]
TNF-α protein level in RPE-choroid complex (TNF-α): 360 ± 12 pg/mg
MCP-1 protein level in RPE-choroid complex (MCP-1): 662 ± 52 pg/mg
